tested on: IFN-γ; experiment: In vivo peptide micro-library screening, IFN-γ ELISA of re-stimulated splenocytes relative to A5; parameters: species or system mice; conditions: rank among 100 micro-library peptides; IFN-γ on re-stimulation relative to A5; 5 peptides plus A5 with CPQ
Protocol: Mice were immunized with 5 library peptides at a time, along with the A5 peptide, with all peptides combined and admixed with CPQ. After two intramuscular injections, splenocytes were collected, and then re-stimulated with each of the synthetic micro-library peptides, individually. Production of IFN-γ was measured and peptide immunogenicity was determined relative to the A5 peptide, which served as in internal control that could induce strong Ag-specific CD8^+ T cell responses.
For Ag screening, multivalent vaccine composed of peptide with the same MHC-I haplotypes (H-2L^d, H-2D^d, or H-2K^d) and the internal A5 peptide were admixed with CPQ. After immunization, only ˜10% of MHC-I binding peptides induced T cells in splenocytes that produced IFN-γ with peptide re-stimulation, and none were nearly as effective as A5 (FIG. 16B). The most highly immunogenic peptides only produced about a quarter of the level of IFN-γ relative to A5. […] It is also feasible that immunization with higher antigen doses of single individual peptides could have induced stronger immunogenic responses, although this would decrease the in vivo peptide micro-library screening throughput.
IFN-γ ELISA: 2.5×10^5 splenocytes were seeded in a 96 wells plate and stimulated with 10 μg/mL antigens for 72 hr. 50 μL of supernatant was collected from each well and subjected to Interferon gamma ELISA (Thermofisher; catalog: BMS606TEN) according to manufacturer protocol.

Substance | Experimental rank
H6-DPFATPLSM-ERR (HHHHHHDPFATPLSMERR; CT21) | 83
H6-HYLNDGDAI-ERR (HHHHHHHYLNDGDAIERR; H6 and ERR flanks; CT25) | 80
H6-LFVTVLEVI-ERR (HHHHHHLFVTVLEVIERR; CT26) | 91
H6-WGAWLSGAL-ERR (HHHHHHWGAWLSGALERR; CT42) | 28
H6-GPPGGFQEF-ERR [CT4] (HHHHHHGPPGGFQEFERR; CT4) | 63
H6-LVPNRFSRL-ERR (HHHHHHLVPNRFSRLERR; CT45) | 13
H6-SPKALAHNG-ERR (HHHHHHSPKALAHNGERR; CT37*) | 1
H6-RGPPPHSAP-ERR (HHHHHHRGPPPHSAPERR; H6 and ERR flanks; CT46) | 72
H6-SYLRRLPGL-ERR (HHHHHHSYLRRLPGLERR; CT35) | 100
H6-FPPQNMFEF-ERR [CT14] (HHHHHHFPPQNMFEFERR; CT14) | 98
H6-PGPIKCVPI-ERR (HHHHHHPGPIKCVPIERR; CT3) | 22
H6-VVLETFYDL-ERR (HHHHHHVVLETFYDLERR; CT19) | 56
H6-FYTSYLRRL-ERR (HHHHHHFYTSYLRRLERR; CT74) | 76
H6-FFMKMASKF-ERR (HHHHHHFFMKMASKFERR; CT73) | 78
H6-NPRAMQVLL-ERR (HHHHHHNPRAMQVLLERR; CT20) | 38
H6-KYYAVNFSM-ERR [CT95] (HHHHHHKYYAVNFSMERR; CT95) | 59
H6-SPNRRFTEM-ERR (HHHHHHSPNRRFTEMERR; CT17) | 58
H6-TPPSIFSTQ-ERR (HHHHHHTPPSIFSTQERR; CT49) | 73
H6-NALSSMGAL-ERR (HHHHHHNALSSMGALERR; CT40*) | 6
H6-VYFVAGVRV-ERR (HHHHHHVYFVAGVRVERR; H6 and ERR flanks; CT71) | 3
H6-IGQMLQTHF-ERR (HHHHHHIGQMLQTHFERR; CT84) | 49
H6-SEGNSSHTI-ERR (HHHHHHSEGNSSHTIERR; CT81) [CT80] | 31
H6-FPPQNMFEF-ERR [CT43] (HHHHHHFPPQNMFEFERR; CT43) | 15
H6-YYESDEFTV-ERR (HHHHHHYYESDEFTVERR; CT65) | 17

Substance | Experimental rank
H6-EPQVEPLDF-ERR (HHHHHHEPQVEPLDFERR; CT15) | 81
H6-AYVNAIEKI-ERR (HHHHHHAYVNAIEKIERR; CT12) | 93
H6-LFLKSPTAL-ERR (HHHHHHLFLKSPTALERR; CT34) | 99
H6-TGPYVMMIG-ERR (HHHHHHTGPYVMMIGERR; CT6) | 84
H6-SFQPTADEL-ERR (HHHHHHSFQPTADELERR; CT62) | 11
H6-SYTEQNVKL-ERR (HHHHHHSYTEQNVKLERR; CT30) | 85
H6-SYETLKKSL-ERR (HHHHHHSYETLKKSLERR; CT7) | 94
H6-KPYESYTEQ-ERR (HHHHHHKPYESYTEQERR; CT87) | 75
H6-KTPEL VEAL-ERR (HHHHHHKTPELVEALERR; CT36*) | 51
H6-MPQLFMVSK-ERR (HHHHHHMPQLFMVSKERR; CT100) | 16
H6-RPIKGPRNI-ERR (HHHHHHRPIKGPRNIERR; CT18) | 47
H6-SYATYLQPA-ERR (HHHHHHSYATYLQPAERR; CT63) | 19
H6-GPPGGFQEF-ERR [CT99] (HHHHHHGPPGGFQEFERR; CT99) | 53
H6-YVYEIYMTF-ERR (HHHHHHYVYEIYMTFERR; CT98) | 9
H6-RGEYEDPYY-ERR (HHHHHHRGEYEDPYYERR; CT56) | 35
H6-TGRRRTATK-ERR (HHHHHHTGRRRTATKERR; CT59) | 30
H6-GPPPHSAPC-ERR (HHHHHHGPPPHSAPCERR; H6 and ERR flanks; CT47) | 71
H6-SGPIGPPEI-ERR (HHHHHHSGPIGPPEIERR; CT48) | 70
H6-SGPSYATYL-ERR (HHHHHHSGPSYATYLERR; CT1) | 62
H6-GFPSPLGGI-ERR (HHHHHHGFPSPLGGIERR; CT58) | 42
H6-LNYPHITNL-ERR (HHHHHHLNYPHITNLERR; CT81) | 54
H6-MLARKQFDL-ERR (HHHHHHMLARKQFDLERR; CT86) | 60
H6-GYEAVVRLL-ERR (HHHHHHGYEAVVRLLERR; CT23) | 77
H6-RTPHVLWSW-ERR (HHHHHHRTPHVLWSWERR; CT41) | 40

Substance | Experimental rank
H6-LGYRYWTGI-ERR (HHHHHHLGYRYWTGIERR; CT92) | 41
H6-SYIMAICGM-ERR [CT67] | 36
H6-HHTMMVQAI-ERR (HHHHHHHHTMMVQAIERR; CT24) | 86
H6-PYLTALDDL-ERR (HHHHHHPYLTALDDLERR; CT28) | 82
H6-PGGFQEFNF-ERR (HHHHHHPGGFQEFNFERR; CT89) | 25
H6-SYTSYIMAI-ERR (HHHHHHSYTSYIMAIERR; CT10) | 69
H6-TY AIALINV-ERR (HHHHHHTYAIALINVERR; CT70) | 29
H6-CQIAMVHYI-ERR (HHHHHHCQIAMVHYIERR; CT61) | 10
H6-CYVTYKGEI-ERR (HHHHHHCYVTYKGEIERR; CT9) | 89
H6-TALPVGFSL-ERR (HHHHHHTALPVGFSLERR; CT90) | 79
H6-PTPRRFSPP-ERR (HHHHHHPTPRRFSPPERR; CT52) | 24
H6-QFPSESEFF-ERR (HHHHHHQFPSESEFFERR; CT5) | 18
H6-TYLQPAQAQ-ERR (HHHHHHTYLQPAQAQERR; CT75) | 12
H6-GRPSIDNVL-ERR (HHHHHHGRPSIDNVLERR; CT51) | 37
H6-LYLANLRHM-ERR (HHHHHHLYLANLRHMERR; CT64) | 14
H6-SRLQSLTLI-ERR (HHHHHHSRLQSLTLIERR; CT72) | 7
H6-EYEKIEIPI-ERR (HHHHHHEYEKIEIPIERR; CT68) | 66
H6-AYVNATGEV-ERR (HHHHHHAYVNATGEVERR; CT13) | 95
H6-YGKGVNFYL-ERR (HHHHHHYGKGVNFYLERR; CT50) | 68
H6-YYMRDVIAI-ERR (HHHHHHYYMRDVIAIERR; CT33) | 96
H6-EGPHGQPVS-ERR (HHHHHHEGPHGQPVSERR; CT54) | 57
H6-TPHVLWSWG-ERR (HHHHHHTPHVLWSWGERR; CT97) | 4
H6-KGPRNIQLD-ERR (HHHHHHKGPRNIQLDERR; CT57) | 48
H6-IPDEAMVKL-ERR (HHHHHHIPDEAMVKLERR; CT16) | 33

Substance | Experimental rank
H6-KYYAVNFSM-ERR [CT8] (HHHHHHKYYAVNFSMERR; CT8) | 88
H6-RGGPKKCAL-ERR (HHHHHHRGGPKKCALERR; CT53) | 32
H6-EPQIAMDDM-ERR (HHHHHHEPQIAMDDMERR; CT22) | 74
H6-PYFRLEHYL-ERR (HHHHHHPYFRLEHYLERR; CT27) | 87
H6-RHNTMLKAM-ERR (HHHHHHRHNTMLKAMERR; CT66) | 61
H6-TYWKGNPEM-ERR (HHHHHHTYWKGNPEMERR; CT31) | 97
H6-TPPSHKLPL-ERR (HHHHHHTPPSHKLPLERR; CT55) | 23
H6-PPQNMFEFP-ERR (HHHHHHPPQNMFEFPERR; CT82) | 67
H6-DSPNRRFTE-ERR (HHHHHHDSPNRRFTEERR; CT60) | 20
H6-SYIKKLKEL-ERR (HHHHHHSYIKKLKELERR; CT29) | 90
H6-KGPKRDEQC-ERR (HHHHHHKGPKRDEQCERR; CT2) | 65
H6-VVEANWTML-ERR (HHHHHHVVEANWTMLERR; CT96) | 2
H6-VYFTINVNL-ERR (HHHHHHVYFTINVNLERR; CT32) | 43
H6-RYWTGIGVL-ERR (HHHHHHRYWTGIGVLERR; CT11) | 92
H6-DPQFAENYV-ERR (HHHHHHDPQFAENYVERR; CT94) | 55
H6-LLYNAVVWL-ERR (HHHHHHLLYNAVVWLERR; CT93) | 27
H6-RKIKGPYWL-ERR (HHHHHHRKIKGPYWLERR; CT91) | 52
H6-FPSESEFFK-ERR (HHHHHHFPSESEFFKERR; CT83) | 26
H6-KPFTICKYY-ERR (HHHHHHKPFTICKYYERR; CT88) | 34
H6-IYSRTTDVL-ERR (HHHHHHIYSRTTDVLERR; CT76) | 64
H6-IPIFHILNT-ERR (HHHHHHIPIFHILNTERR; CT85) | 8
H6-IYLESVAIM-ERR (HHHHHHIYLESVAIMERR; CT78) | 50
H6-SSKHRRSFV-ERR (HHHHHHSSKHRRSFVERR; CT38*) | 45

From US20240091328A1, “FORMULATIONS AND METHODS FOR MHC-I RESTRICTED EPITOPE IMMUNIZATION” (The Research Foundation for The State University of New York, priority 2021, published 2024)
